Reference: patent US20130072438A1, “OPIOID PEPTIDE ESTERS AND METHODS OF USE” (The United States Government as represented by the …, priority 2011, published 2013)
Residues, ends and D or L forms follow the SMILES beside them.

Tested on: male Wistar rats
Test: Cold immersion tail withdrawal latency after intraperitoneal dosing
Format: in vivo, rat
Conditions: for Trial 1 Latency (s), post-treatment cold immersion response / Trial 2 Latency (s), post-treatment cold immersion response / Trial 3 Latency (s), post-treatment cold immersion response: from 30 min post-dose, -20° C bath
Description: Three male Wistar rats at 8 weeks of age (Taconic Farms, Germantown, N.Y.) were utilized in the experiment. Each rat was grasped firmly, while the distal half of its tail was immersed in a liquid bath at a temperature of −20° C. Latency periods (in seconds) were measured from the time that tails were immersed to the time that the rat removed its tail from the liquid. Prior to dosing, rats were given three trials, approximately ten minutes apart. […] Post-dose trials were also approximately ten minutes apart. Animals were examined for acute adverse effects to both the cold liquid bath and the test article.

SMILES: CCOC(=O)C1CCCN1C(=O)C(N)Cc1ccc(O)cc1 (stereo not drawn) [Tyr-Pro-Ethyl] (H-Tyr-Pro-OEt; configuration not given here)
- Mean latency of three trials, post-treatment cold immersion response (animal 1, 1 mg i.p.): 15.6 s
- Post-treatment mean with longest latency period eliminated (animal 1, 1 mg i.p.): 12.4
- Trial 1 Latency (s), post-treatment cold immersion response (animal 1, 1 mg i.p.): 13.2 s
- Trial 2 Latency (s), post-treatment cold immersion response (animal 1, 1 mg i.p.): 22.1 s
- Trial 3 Latency (s), post-treatment cold immersion response (animal 1, 1 mg i.p.): 11.5 s
- Mean latency of three trials, post-treatment cold immersion response (animal 2, 2 mg i.p.): 7.2 s
- Post-treatment mean with longest latency period eliminated (animal 2, 2 mg i.p.): 4.7
- Trial 1 Latency (s), post-treatment cold immersion response (animal 2, 2 mg i.p.): 4.7 s
- Trial 2 Latency (s), post-treatment cold immersion response (animal 2, 2 mg i.p.): 4.7 s
- Trial 3 Latency (s), post-treatment cold immersion response (animal 2, 2 mg i.p.): 12.2 s
- Mean latency of three trials, post-treatment cold immersion response (animal 3, 0.5 mg i.p.): 7.2167 s
- Post-treatment mean with longest latency period eliminated (animal 3, 0.5 mg i.p.): 6.3
- Trial 1 Latency (s), post-treatment cold immersion response (animal 3, 0.5 mg i.p.): 6.45 s
- Trial 2 Latency (s), post-treatment cold immersion response (animal 3, 0.5 mg i.p.): 6.2 s
- Trial 3 Latency (s), post-treatment cold immersion response (animal 3, 0.5 mg i.p.): 9.0 s
- Crossing of the BBB (rats, at the doses given (0.5, 1, 2 mg i.p.), inferred from latency data): able to cross the BBB
- Hydrolysis by esterases (rats, cerebrospinal fluid, inferred from latency data): hydrolyzed by esterases in the cerebrospinal fluid
- Effect on sensitivity to noxious stimulus (rats, cold immersion, 0.5, 1, 2 mg i.p.): increase sensitivity to noxious stimulus
